Assay results published in patent US20260248969A1, “PEPTIDE MULTIMER PRODUCTS AND METHODS” (REGENTS OF THE UNIVERSITY OF MICHIGAN, priority 2023, published 2026).
Blank lines part the entries; values can stand above or below the molecule they belong to. Residues, ends and D or L forms follow the SMILES beside them. No end group written: not given here. *: point of attachment. IRDye800CW = CC1(C)C(/C=C/C2=C(Oc3ccc(S(=O)(=O)O)cc3)C(=C/C=C3/N(CCCCS(=O)(=O)O)c4ccc(S(=O)(=O)O)cc4C3(C)C)/CCC2)=[N+](CCCCCC(=O)*)c2ccc(S(=O)(=O)[O-])cc21

Columns and labels:
[1] = tested on: orthotopic HCC PDX tumors; experiment: In vivo MR imaging of tumor uptake, orthotopic HCC PDX model; set-up: species or system mouse; settings: peak uptake 0.5 hours post-injection, same tumor in n=3 mice
Description: (§1) In vivo imaging was performed to assess HCC tumor uptake, biodistribution, and clearance of the optimized multimer. […] The target-to-background (T/B) ratio for the multimer was ~1.8-fold greater than that for monomer and free Gd-DOTA from the same tumor in n=3 animals. The target region was segmented using the Chan-Vese algorithm. The background region was defined by dilating the target region. Clearance of the MR signal occurred after ~4 hours post-injection. Data from whole body NIR fluorescence images collected in vivo from the orthotopic HCC tumor following intravenous injection of the lead candidate EpCAM target and control peptides is shown in FIG. 6C. […] For the differences and variances shown in FIG. 60, the power is >95% to obtain P<0.01 for target versus control using n=8 mice per group.
In vivo tumor uptake of the peptide multimer was evaluated in an orthotopic HCC PDX mouse model using T1-weighted MR images. The Gd-DOTA labeled peptide multimer and peptide monomers specific for GPC3, CD44, and EpCAM were intravenously injected at a concentration of 300 μM in 200 μL of PBS via the tail vein of mice bearing orthotopic PDX tumors, FIG. 13A-E. Gd-DOTA (300 μM in 200 μL PBS) was also intravenously injected as a control. T1-weighted MR images were acquired using a 7T horizontal bore small animal magnet (SGRAD 205/120/HD/S, Agilent Technologies). […]

CD44 [2] = experiment: Co-localization of peptide monomer and anti-CD44-AF488 binding to SK-Hep1 cells; settings: SK-Hep1 human HCC cells
Description: Specific binding of the optimized IRDye800-labeled […] monomer peptide was substantiated using a co-localization of binding to known antibodies. Human Hep3B, HepG2, and Sk-Hep1 HCC cells that overexpress early-stage HCC targets were used. A Pearson's correlation coefficient ρ was calculated from fluorescence intensities on merged images. Measurements were made from n=10 cells chosen randomly from 3 slides. Data for CD44 is shown in FIG. 4A, and similar data was obtained for GPC3 and EpCAM. As shown in the figure, binding by WKG*-IRDye800 and anti-CD44-AF488 to the surface (arrows) of Sk-Hep1 cells co-localized with a correlation of p=0.81 measured on the merged image.

[3] = mouse, in vivo, iv
Description: C) Serum stability of WKG*-IRDye800 (200 μM in 200 μL of PBS) in mice (n=5) was measured following intravenous injection. Serum was collected at various time points from 0-24 hours post-injection.
The optimized WKG* monomer labeled with IRDye800 was incubated in serum to determine half-life T1/2. Stability in mouse serum over time was measured using analytical RP-HPLC. The relative concentration was calculated from the area-under-the-peak, and the intensities were fit to a first order kinetic model, and the serum half-life T1/2 was determined.

CD44 [4] = experiment: Apparent dissociation constant by flow cytometry on SK-Hep1 cells; assay type: binding, human; settings: 0-200 nM, R^2=0.99
Description: The equilibrium dissociation constant kd=1/ka was calculated by performing using a least square fit of the data to the non-linear equation I=(I0+Imaxka[X])/(I0+ka[X]). I0 and Imax are the initial and maximum fluorescence intensities, corresponding to no peptide and at saturation, respectively, and [X] represents the concentration of the bound peptide. Results are the mean values from 3 independent experiments.
The apparent dissociation constant (kd) of the IRDye800-labeled WKG* peptide monomer was measured to provide an estimate of binding affinity. The IRDye800-labeled monomer was incubated with human HCC cells over a range of concentrations. Fluorescence intensities were measured with flow cytometry. WKG*-IRDye800 was incubated with SK-Hep1 cells over concentrations ranging from 0-200 nM, and the fluorescence intensity was measured with flow cytometry.

[5] = tested on: orthotopic HCC PDX tumors; experiment: In vivo whole body NIR fluorescence imaging of orthotopic HCC PDX tumors; set-up: species or system mouse; settings: P<1×10^−4 by paired t-test
Description: as §1

[6] = target: T1, CD44 (cluster of differentiation 44) (human, UniProt P16070 21-742); experiment: quantified fluorescence on CCA-156 cells, 5 uM; multimer signal comes from cells that carry GPC3, CD44 and EpCAM
T1 construct: whole, on cells; Endogenous target on human HCC cells and tissues; no recombinant protein was used
T1 sequence (P16070 21-742): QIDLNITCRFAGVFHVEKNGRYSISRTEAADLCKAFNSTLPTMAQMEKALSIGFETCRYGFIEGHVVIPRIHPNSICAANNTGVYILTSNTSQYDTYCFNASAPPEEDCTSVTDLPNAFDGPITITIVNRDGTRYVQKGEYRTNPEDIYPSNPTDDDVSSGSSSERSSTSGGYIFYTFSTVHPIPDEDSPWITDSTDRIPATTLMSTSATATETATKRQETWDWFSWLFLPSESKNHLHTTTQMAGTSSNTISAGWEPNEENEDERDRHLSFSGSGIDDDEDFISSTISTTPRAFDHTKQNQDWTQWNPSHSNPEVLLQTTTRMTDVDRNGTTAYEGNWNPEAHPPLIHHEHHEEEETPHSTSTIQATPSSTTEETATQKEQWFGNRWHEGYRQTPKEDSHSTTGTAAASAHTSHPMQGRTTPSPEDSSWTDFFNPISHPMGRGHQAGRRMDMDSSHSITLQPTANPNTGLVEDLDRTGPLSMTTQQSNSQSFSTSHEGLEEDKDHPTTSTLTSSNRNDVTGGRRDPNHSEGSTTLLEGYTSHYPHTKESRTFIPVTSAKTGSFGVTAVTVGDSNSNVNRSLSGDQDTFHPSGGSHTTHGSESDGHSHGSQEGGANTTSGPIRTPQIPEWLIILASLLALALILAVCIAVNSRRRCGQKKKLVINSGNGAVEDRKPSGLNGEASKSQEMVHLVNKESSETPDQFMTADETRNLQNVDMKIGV
Description: (§2) Approximately 10³ CCA-156 cells were grown on the cover glass in a 24-well plate to ~90% confluence. The cells were washed with PBS twice and incubated with 5 μM of either Cy5.5-labeled peptide multimer or peptide monomer for 5 min on ice. The cells were then washed with PBS for 3X, fixed with 4% paraformaldehyde (PFA) in PBS for 15 min, washed with PBS for twice, then mounted on glass slides with ProLong Gold reagent containing DAPI (Invitrogen).

Glypican-3 (GPC3) = target: T2, Glypican-3 (GPC3) (human, UniProt P51654 25-554); experiment: as above
T2 construct: whole, on cells; Endogenous target on human HCC cells and tissues
T2 sequence (P51654 25-554 limits assumed): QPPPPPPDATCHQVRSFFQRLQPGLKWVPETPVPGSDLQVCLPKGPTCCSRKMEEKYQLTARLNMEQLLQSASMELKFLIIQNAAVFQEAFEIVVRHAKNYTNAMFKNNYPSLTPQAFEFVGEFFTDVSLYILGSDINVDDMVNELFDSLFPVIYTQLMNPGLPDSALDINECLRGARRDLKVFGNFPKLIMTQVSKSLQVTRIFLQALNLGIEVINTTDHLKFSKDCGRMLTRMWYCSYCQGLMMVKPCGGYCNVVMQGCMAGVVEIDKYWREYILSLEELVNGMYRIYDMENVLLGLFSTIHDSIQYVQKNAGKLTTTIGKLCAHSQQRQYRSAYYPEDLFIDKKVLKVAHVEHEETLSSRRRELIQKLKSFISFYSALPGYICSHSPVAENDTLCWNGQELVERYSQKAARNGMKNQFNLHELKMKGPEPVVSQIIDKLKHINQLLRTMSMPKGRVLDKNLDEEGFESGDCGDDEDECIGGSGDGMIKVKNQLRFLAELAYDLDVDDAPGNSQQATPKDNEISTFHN
Description: as §2

[7] = target: T3, Epithelial cell adhesion molecule (EpCAM) (human, UniProt P16422 24-314); experiment: as above
T3 construct: whole, on cells; Endogenous target on human HCC cells and tissues
T3 sequence (looked up): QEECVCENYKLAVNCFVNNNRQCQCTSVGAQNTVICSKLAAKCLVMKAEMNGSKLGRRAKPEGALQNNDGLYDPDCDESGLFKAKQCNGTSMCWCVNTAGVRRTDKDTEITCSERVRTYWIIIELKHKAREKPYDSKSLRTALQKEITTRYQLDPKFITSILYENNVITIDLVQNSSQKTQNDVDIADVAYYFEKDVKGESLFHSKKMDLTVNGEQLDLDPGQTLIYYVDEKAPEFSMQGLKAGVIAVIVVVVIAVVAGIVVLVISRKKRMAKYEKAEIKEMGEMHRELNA
Description: as §2

[8] = target: T1, CD44 (cluster of differentiation 44); experiment: flow cytometry, labeled peptide 0-200 nM on SK-Hep1 human HCC cells; apparent dissociation constant
Description: A) WKG*-IRDye800 and anti-CD44-AF488 bind intensely to the surface (arrows) of SK-Hep1 human HCC cells. A Pearson's correlation coefficient of r=0.81 was measured from the merged image. […] B) An apparent dissociation constant of kd=43 nM, R²=0.99, was measured for WKG*-IRDye800 binding to SK-Hep1 cells. The equilibrium dissociation constant kd=1/kₐ was calculated by performing using a least square fit of the data to the non-linear equation […]. I₀ and Iₘₐₓ are the initial and maximum fluorescence intensities, corresponding to no peptide and at saturation, respectively, and [X] represents the concentration of the bound peptide. Results are the mean values from 3 independent experiments. C) Serum stability of WKG*-IRDye800 (200 μM in 200 μL of PBS) in mice (n=5) was measured following intravenous injection. […] The fluorescence intensity I(t) was measured and fit to a first-order kinetics model I(t)=Iₒ+A×exp(−Bt), and a serum half-life of T_{1/2}=5.1 hours was calculated.
The apparent dissociation constant (kd) of the IRDye800-labeled WKG* peptide monomer was measured to provide an estimate of binding affinity. […] Fluorescence intensities were measured with flow cytometry. WKG*-IRDye800 was incubated with SK-Hep1 cells over concentrations ranging from 0-200 nM, and the fluorescence intensity was measured with flow cytometry. […]

[9] = target: T3, Epithelial cell adhesion molecule …; experiment: fluorescence microscopy, 5 uM on CCA-156 cells
Description: as §2

Molecule: O=C([O-])CN1CCN(CC(=O)[O-])CCN(CC(=O)O)CCN(CC(=O)[O-])CC1.[Gd+3] [free Gd-DOTA, Gd-DOTA]
- T/B ratio [1]: 0.99±0.04

Molecule: CC(C)C[C@H](NC(=O)[C@H](Cc1ccc(O)cc1)NC(=O)[C@H](CO)NC(=O)[C@H](Cc1c[nH]c2ccccc12)NC(=O)CNC(=O)[C@H](CCCCN)NC(=O)[C@@H](N)Cc1c[nH]c2ccccc12)C(=O)N[C@@H](Cc1c[nH]c2ccccc12)C(=O)N[C@H](C(=O)N[C@@H](CCC(N)=O)C(=O)N[C@@H](CCC(N)=O)C(=O)N[C@@H](C)C(=O)NCC(=O)NCC(=O)NCC(=O)N[C@@H](CO)C(=O)N[C@@H](CCCCNC(=O)CCCCCN1C(=CC=C2CCCC(C=CC3=[N+](CCCCS(=O)(=O)[O-])c4ccc(S(=O)(=O)O)cc4C3(C)C)=C2Oc2ccc(S(=O)(=O)O)cc2)C(C)(C)c2cc(S(=O)(=O)O)ccc21)C(N)=O)[C@@H](C)O [WKG*-IRDye800] (H-WKGWSYLWTQQAGGGSK(IRDye800CW)-NH2)
- binding to the surface of SK-Hep1 cells (CD44 [2]): bind intensely
- Pearson's correlation coefficient, peptide and anti-CD44-AF488 (CD44 [2]; merged image): 0.81
- half-life [3]: 5.1 h
- Kd (CD44 [4]): 43 nM

Molecule: HPD*-IRDye800: lead EpCAM peptide HPDMFTRTHSHN (SEQ ID NO: 7) labeled with IRDye800 (also: IRDye800 label, site not given here)
- NIR fluorescence intensity versus control PFH*-IRDye800 [5]: significantly greater

- fold increase of fluorescence intensity versus the CD44 monomer WKG*-Cy5.5 [6]: 1.84 fold
- fold increase of fluorescence intensity versus the GPC3 monomer ALL*-Cy5.5 (Glypican-3 (GPC3)): 5.48 fold
- fold increase of fluorescence intensity versus the EpCAM monomer HPD*-Cy5.5 [7]: 2 fold
B1: Cy5.5-labeled peptide multimer (ALL*, WKG* and HPD* on a tri-lysine linker) (designed binder)
peptide 1: ALLANHEELFQT
peptide 2: WKGWSYLWTQQA
peptide 3: HPDMFTRTHSHN
modifications: also: each peptide joined through PEG3 extension to a tri-lysine linker, Cy5.5 label, site not given here
notes: also called Cy5.5-labeled multimer; not shown: The branched tri-lysine linker with PEG3 extensions and the Cy5.5 label

- Kd [8]: 43 nM
B2: WKG*-IRDye800 (IRDye800-labeled WKG* peptide monomer, WKGWSYLWTQQA) (peptide)
peptide: WKGWSYLWTQQA
modifications: also: IRDye800 label, site not given here
notes: also called IRDye800-labeled WKD* monomer peptide

- binding result [9]: binds
B3: HPD*-Cy5.5 (Cy5.5-labeled EpCAM peptide monomer, HPDMFTRTHSHN) (peptide)
peptide: HPDMFTRTHSHN
modifications: also: Cy5.5 label, site and linker not given here
